Assay results as given in publication PMC8121805, “Discovery of first-in-class inhibitors of ASH1L histone methyltransferase with anti-leukemic activity” (Nature Communications, 2021).
Values joined by “and” are separate entries in the source; they are usually repeats but may differ in a detail not shown here. Identical values can stand only once.

Tests used:
[1] = system: K562 cells; experiment: Flow cytometry of CD11B expression (differentiation); format: cell-based, human; conditions: for K562 % CD11B+ cells: 7 days
Experimental: In addition, 1 × 10^5 cells per sample were stained with Zombie Aqua™ dye (1:100 dilution) for 15 min using the Zombie Aqua™ Fixable Viability Kit (Zombie Aqua™ Fixable Viability Kit, Biolegend®) […] and then for 30 min with an anti-CD11B-PE antibody (982606, ICRF44, Biolegend®) or anti-CD11B-Pacific Blue (101224, BD BioLegend) antibody at 1:50 dilution, according to the No-wash Sequential Staining Protocol described by the manufacturer (BioLegend, Zombie Aqua Fixable Viability Kit). Cells were washed twice with 500 µL PBS containing 1% FBS and resuspended in 200 µL PBS with 1% FBS.

[2] = Body weight during treatment in the MV4;11 model
Experimental: Briefly, the 8- to 10-week old female NSG mice (Jackson Laboratory) were intravenously injected with 5 × 10^6 luciferase-expressing MV4;11 cells (received from Dr. Thomas Look, Dana Farber Cancer Institute). […] For imaging, mice were kept anesthetized with isoflurane, and 50 mg/kg luciferin (E1603, Promega) was administered by intraperitoneal injection. Photonic emission was imaged using the in Vivo Imaging System BLI (IVIS, 200) with total imaging time of 10 s for each mouse.
Measurements are reference to the values obtained at the first day of treatment, which were set as

[3] = target: NSD2 (Homo sapiens, UniProt O96028); experiment: HMT selectivity panel; conditions: NSD2, 50 µM compound
Description: (§1) mM DTT and 0.01% Triton X-100 was used in experiments containing core histone.

[4] = target: DOT1L (Homo sapiens, UniProt Q8TEK3); experiment: HMT selectivity panel; conditions: 50 µM compound
Experimental: as §1
experiments containing nucleosome.
G9a 5 core histone 0.05 mg/mL 1
GLP 5 core histone 0.05 mg/mL 1

[5] = target: PRMT6 (Homo sapiens, UniProt Q96LA8); experiment: HMT selectivity panel; conditions: PRMT6, 50 µM compound
Description: as §1

[6] = system: MV4;11 leukemic blasts (human CD45+ cells) in NSG mice; experiment: Flow cytometry of hCD45+ cells in spleen and peripheral blood; format: in vivo, mouse
Experimental: Red blood cells were lysed with ACK lysis buffer (10-548E, Lonza). Up to 100,000 cells were washed in PBS (with 1% FBS) and stained with the anti–human CD45-BV421 antibody (563879, HI30, BD Biosciences) at 1:50 dilution for 30 min.

[7] = target: SMYD2 (Homo sapiens, UniProt Q9NRG4); experiment: HMT selectivity panel; conditions: SMYD2, 50 µM compound
Description: (§2) Assay conditions for selectivity experiments with a panel of histone
as §1

[8] = Effect on normal hematopoiesis: complete blood counts and blood parameters
Experimental: At the end point of the experiment blood samples were collected, processed and analyzed for complete blood counts (CBC) and to assess populations of myeloid (CD11b + /Gr-1 + ), B- (B220 + /CD19 + ), and T- (CD3 + ) cells using flow cytometry. […] The analysis of CBC and other blood parameters was performed by the ULAM Animal Diagnostic Laboratory using Element HT5 (HESKA).
(a) Analysis of blood cell counts in
blood cells, RBC – red blood cells, NEU – neutrophiles, LYM – lymphocytes. MONO –
monocytes, EOS – eosinophils, BAS - basophils, PLT - platelets) and other blood parameters (Hgb
– Hemoglobin, HCT- Hematocrit, MCV – Mean corpuscular volume, MCH - Mean corpuscular
hemoglobin, MCHC - Mean corpuscular hemoglobin concentration, RDW – Red cell distribution
(1 picture or pasted object on this page, not shown here)

[9] = target: SMYD1 (Homo sapiens, UniProt Q8NB12); experiment: HMT selectivity panel; conditions: SMYD1, 50 µM compound
Description: as §2, §1

[10] = system: human CD34+ cells from cord blood; experiment: Colony-forming assay with normal hematopoietic progenitor cells; conditions: 7 days
Experimental: The experiment was performed twice. […] Mean ± SD, n = 3 biological replicates. […] Two independent experiments were performed in triplicates. Representative graphs are shown. *P < 0.05; **P < 0.01; ****P < 0.0001; NS not significant.

[11] = target: ASH1L (amino acids 2046–2330) (Homo sapiens, UniProt Q9NR48); experiment: Histone methyltransferase (HMT) assay
Experimental: The mixtures of ASH1L and compounds were incubated at room temperature for 1 h. […] The reaction was continued for 1 h at room temperature, then quenched by addition of 10% Trichloroacetic acid (TCA) and then transferred to 96-well filter plates (Millipore sigma, MSFBN6B), washed twice with 10% TCA and then once with 200-proof ethanol. After extensive drying, 70 µL of Microscint-O scintillant (PerkinElmer) was added and counts per minute (CPM) were measured using a MicroBeta microplate counter (PerkinElmer). Titration curves were plotted using Prism (GraphPad Prism 8.0.0.) and IC50 values were calculated.

[12] = individual mice, after last day of treatment, 30 mg/kg q.d. i.p., 30 mg/kg
[13] = Fig S12a, individual mice, AS-99 group

Chain of PRMT6 (Q96LA8 whole entry, species assumed): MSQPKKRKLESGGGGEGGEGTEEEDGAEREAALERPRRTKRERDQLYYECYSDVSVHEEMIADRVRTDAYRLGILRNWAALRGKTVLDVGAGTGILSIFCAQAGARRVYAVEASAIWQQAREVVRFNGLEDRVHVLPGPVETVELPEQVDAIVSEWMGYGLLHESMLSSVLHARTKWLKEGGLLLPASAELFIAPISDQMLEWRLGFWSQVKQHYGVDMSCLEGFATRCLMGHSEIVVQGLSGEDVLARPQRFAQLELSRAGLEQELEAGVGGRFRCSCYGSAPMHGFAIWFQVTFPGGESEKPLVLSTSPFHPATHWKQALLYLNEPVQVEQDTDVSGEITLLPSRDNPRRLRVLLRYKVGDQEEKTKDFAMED
Chain of SMYD2 (Q9NRG4 whole entry, species assumed): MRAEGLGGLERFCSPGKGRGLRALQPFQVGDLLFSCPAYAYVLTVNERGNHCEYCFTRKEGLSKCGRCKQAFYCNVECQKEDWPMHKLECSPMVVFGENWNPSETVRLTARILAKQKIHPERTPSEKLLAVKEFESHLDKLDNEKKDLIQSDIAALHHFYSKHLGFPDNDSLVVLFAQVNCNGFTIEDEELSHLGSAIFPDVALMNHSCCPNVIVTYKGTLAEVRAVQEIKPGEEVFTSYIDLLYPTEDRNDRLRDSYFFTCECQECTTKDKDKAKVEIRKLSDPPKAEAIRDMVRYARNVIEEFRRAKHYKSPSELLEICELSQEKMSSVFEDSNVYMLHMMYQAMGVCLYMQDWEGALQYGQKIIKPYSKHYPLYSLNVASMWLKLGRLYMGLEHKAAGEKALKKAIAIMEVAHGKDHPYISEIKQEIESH
Chain of SMYD1 (Q8NB12 whole entry, species assumed): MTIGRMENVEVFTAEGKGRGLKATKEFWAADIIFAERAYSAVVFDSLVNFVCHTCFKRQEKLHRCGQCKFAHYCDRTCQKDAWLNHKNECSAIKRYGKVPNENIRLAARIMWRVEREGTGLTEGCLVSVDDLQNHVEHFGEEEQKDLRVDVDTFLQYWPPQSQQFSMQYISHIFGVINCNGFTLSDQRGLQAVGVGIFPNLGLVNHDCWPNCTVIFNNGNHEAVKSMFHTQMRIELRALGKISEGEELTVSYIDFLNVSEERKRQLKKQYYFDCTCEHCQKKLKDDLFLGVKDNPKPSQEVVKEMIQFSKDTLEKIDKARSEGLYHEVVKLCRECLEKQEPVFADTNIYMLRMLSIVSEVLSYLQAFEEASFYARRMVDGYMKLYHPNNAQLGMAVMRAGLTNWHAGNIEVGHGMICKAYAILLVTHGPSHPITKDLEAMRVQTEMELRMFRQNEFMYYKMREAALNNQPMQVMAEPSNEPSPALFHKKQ
Chain of NSD2 (O96028 whole entry, species assumed): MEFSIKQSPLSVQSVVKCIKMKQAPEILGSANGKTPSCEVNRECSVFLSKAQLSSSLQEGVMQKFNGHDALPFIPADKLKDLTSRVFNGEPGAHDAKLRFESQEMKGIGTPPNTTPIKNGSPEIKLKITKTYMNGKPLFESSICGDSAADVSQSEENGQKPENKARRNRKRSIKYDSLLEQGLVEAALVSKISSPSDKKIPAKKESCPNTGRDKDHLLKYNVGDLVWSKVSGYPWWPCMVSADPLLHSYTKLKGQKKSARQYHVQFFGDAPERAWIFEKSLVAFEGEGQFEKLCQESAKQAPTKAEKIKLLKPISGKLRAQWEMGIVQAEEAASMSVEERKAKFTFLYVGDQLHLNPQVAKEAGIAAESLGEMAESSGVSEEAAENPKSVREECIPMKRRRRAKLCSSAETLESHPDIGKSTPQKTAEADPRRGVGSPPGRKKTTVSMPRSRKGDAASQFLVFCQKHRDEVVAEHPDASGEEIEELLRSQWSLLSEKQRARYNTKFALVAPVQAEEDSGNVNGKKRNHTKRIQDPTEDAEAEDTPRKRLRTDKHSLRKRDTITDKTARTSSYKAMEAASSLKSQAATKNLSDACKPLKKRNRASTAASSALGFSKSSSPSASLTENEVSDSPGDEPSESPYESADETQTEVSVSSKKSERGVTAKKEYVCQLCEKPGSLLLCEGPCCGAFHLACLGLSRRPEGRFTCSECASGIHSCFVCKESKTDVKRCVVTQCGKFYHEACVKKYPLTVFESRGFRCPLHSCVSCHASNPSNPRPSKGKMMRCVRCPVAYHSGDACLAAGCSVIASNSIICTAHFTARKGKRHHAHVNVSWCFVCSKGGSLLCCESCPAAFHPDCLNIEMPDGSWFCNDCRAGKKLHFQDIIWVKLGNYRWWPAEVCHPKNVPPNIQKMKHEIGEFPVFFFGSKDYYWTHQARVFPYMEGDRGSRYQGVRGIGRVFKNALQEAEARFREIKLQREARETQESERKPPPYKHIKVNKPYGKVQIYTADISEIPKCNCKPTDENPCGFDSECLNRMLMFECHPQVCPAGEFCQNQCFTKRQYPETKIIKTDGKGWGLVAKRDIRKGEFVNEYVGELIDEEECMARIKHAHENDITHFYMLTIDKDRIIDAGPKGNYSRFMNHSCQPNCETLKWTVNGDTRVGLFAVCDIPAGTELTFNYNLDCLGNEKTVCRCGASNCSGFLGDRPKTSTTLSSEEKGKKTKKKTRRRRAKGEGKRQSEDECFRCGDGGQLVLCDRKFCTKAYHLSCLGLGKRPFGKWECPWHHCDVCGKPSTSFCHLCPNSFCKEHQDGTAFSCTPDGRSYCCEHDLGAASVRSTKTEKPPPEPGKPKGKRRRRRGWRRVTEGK
Chain of DOT1L (Q8TEK3 whole entry, species assumed): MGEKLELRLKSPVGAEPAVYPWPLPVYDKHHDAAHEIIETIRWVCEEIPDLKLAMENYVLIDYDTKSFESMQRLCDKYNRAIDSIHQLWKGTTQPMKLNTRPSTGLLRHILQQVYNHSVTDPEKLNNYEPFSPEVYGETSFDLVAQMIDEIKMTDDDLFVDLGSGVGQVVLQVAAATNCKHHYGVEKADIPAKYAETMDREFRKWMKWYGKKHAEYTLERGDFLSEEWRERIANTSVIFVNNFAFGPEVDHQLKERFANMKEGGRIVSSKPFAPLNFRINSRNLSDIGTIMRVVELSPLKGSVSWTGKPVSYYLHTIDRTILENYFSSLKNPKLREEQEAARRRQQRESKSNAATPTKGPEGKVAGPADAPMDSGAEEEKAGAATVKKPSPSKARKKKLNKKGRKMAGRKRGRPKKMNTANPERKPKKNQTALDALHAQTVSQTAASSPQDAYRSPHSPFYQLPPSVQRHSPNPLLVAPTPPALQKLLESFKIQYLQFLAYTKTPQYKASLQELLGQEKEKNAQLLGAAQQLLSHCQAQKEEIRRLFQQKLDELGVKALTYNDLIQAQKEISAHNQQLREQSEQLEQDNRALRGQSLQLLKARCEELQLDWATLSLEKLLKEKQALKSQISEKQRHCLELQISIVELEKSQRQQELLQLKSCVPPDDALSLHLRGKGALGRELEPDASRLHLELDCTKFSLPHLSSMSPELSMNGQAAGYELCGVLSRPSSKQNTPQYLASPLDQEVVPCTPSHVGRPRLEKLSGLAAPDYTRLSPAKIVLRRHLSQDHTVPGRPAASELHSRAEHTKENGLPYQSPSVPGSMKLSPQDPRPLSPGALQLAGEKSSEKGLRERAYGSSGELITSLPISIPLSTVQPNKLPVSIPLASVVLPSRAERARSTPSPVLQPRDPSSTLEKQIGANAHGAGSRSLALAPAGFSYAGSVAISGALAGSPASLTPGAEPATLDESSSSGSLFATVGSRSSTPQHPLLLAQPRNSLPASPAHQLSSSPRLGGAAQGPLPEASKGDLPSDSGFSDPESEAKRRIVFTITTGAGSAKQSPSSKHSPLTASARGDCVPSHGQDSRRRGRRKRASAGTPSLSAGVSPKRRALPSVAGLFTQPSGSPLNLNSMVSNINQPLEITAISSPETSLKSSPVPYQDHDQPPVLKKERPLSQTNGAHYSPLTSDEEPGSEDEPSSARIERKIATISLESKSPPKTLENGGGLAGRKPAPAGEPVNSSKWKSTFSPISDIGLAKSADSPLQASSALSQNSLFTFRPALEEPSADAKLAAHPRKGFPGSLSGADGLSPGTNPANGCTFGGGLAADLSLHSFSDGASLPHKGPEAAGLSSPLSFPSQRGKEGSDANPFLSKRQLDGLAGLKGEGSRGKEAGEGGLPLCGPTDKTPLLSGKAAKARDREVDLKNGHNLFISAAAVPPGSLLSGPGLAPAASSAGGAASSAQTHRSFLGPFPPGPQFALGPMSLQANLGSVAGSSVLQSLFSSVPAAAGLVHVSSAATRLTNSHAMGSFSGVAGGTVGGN

In the case of `CN1CC(C(=O)NCc2ccc3c(-c4cccc(C(N)=S)c4)cn(C4CCN(S(=O)(=O)C(F)(F)F)CC4)c3c2)C1` [AS-99], the “K562 % CD11B+ cells” value ([1]; 2 uM) is reported as 0.43% and 0.58% and 0.36%, the “K562 % CD11B+ cells” value ([1]; 4 uM) is reported as 0.34% and 0.52% and 0.4% and the “K562 % CD11B+ cells” value ([1]; 6 uM) is reported as 0.56% and 0.39% and 0.38%. The “K562 % CD11B+ cells” value ([1]; 8 uM) was 0.73% and 0.97% and 0.76%, the “differentiation effects in K562” value ([1]; control leukemia cell line) was “not observed” and the “toxicity during the treatment period” value ([2]; 30 mg/kg, i.p., q.d., 14 days) was “No substantial toxicity”. For the same compound, the body weight reduction ([2]; after 7 days of treatment, 30 mg/kg, i.p., q.d.) was ~ 10%, the “normalized body weight change” value ([2]; days of treatment 1) was 100 and the “normalized body weight change” value ([2]; days of treatment 2) was 95 and 98 and 97 and 96. For the same compound, the “normalized body weight change” value ([2]; days of treatment 3) was 94 and 98 and 96 and 99 and 95 and 102, the “normalized body weight change” value ([2]; days of treatment 4) was 95 and 96 and 97 and 100 and the “normalized body weight change” value ([2]; days of treatment 5) was 95 and 89 and 93 and 87 and 100. The “normalized body weight change” value ([2]; days of treatment 6) was 90 and 100 and 94 and 87 and 93, the “normalized body weight change” value ([2]; days of treatment 7) was 85 and 89 and 87 and 94 and the “normalized body weight change” value ([2]; days of treatment 9) was 91 and 93 and 95 and 87 and 90. The “normalized body weight change” value ([2]; days of treatment 10) was 91 and 98 and 96 and 89 and 95 and 87, the “normalized body weight change” value ([2]; days of treatment 11) was 91 and 96 and 94 and 97 and 100 and 99 and 89 and the “normalized body weight change” value ([2]; days of treatment 12) was 95 and 103 and 87 and 88. The “normalized body weight change” value ([2]; days of treatment 13) was 89 and 95 and 94 and 96 and 105 and 90, the activity at 50 µM [3] was 92.1% and the “% activity” value ([3]; 50 µM) was 101.756%. For the same compound, the activity at 50 µM [4] was 107%, the “% activity” value ([4]; 50 µM) was 93.8212% and the activity at 50 µM [5] was 105%. The “% activity” value ([5]; 50 µM) was 107.332%, the “hCD45+ % in PB” value [6, 12] was 6.6% and 0.44% and 0.41% and 0.23% and 0.21% and 0.19% and the “hCD45+ % in spleen” value [6, 12] was 2.39% and 0.79% and 1.14% and 1.53% and 0.61% and 1.12% and 0.041%. For the same compound, the “level of leukemic blasts (human CD45+ cells) in peripheral blood and spleen” value ([6]; last day of treatment) was “significantly lower level”, the “% activity” value [7] was 79.4042% and 102.085% and the BAS [8, 13] was 0.02 x 103/uL (2×) and 0.03 x 103/uL (4×) and 0.01 x 103/uL (2×) and 0 x 103/uL. The EOS [8, 13] was 270 µL⁻¹ and 470 µL⁻¹ and 320 µL⁻¹ and 390 µL⁻¹ and 650 µL⁻¹ and 300 µL⁻¹ and 100 µL⁻¹ and 450 µL⁻¹ and 360 µL⁻¹, the HCT [8, 13] was 41.9% and 39.7% and 28.7% and 46% and 40.3% and 29.4% and 10.7% and 42.8% and 41.4% and the HGB [8, 13] was 13.7 g/dL and 13.1 g/dL and 9.8 g/dL and 15.6 g/dL and 13.9 g/dL and 10.1 g/dL and 3.6 g/dL and 14.6 g/dL and 14 g/dL. The LYM [8, 13] was 4070 µL⁻¹ and 5890 µL⁻¹ and 4140 µL⁻¹ and 5390 µL⁻¹ and 6000 µL⁻¹ and 3920 µL⁻¹ and 1230 µL⁻¹ and 6280 µL⁻¹ and 5970 µL⁻¹, the MCH [8, 13] was 14.8 Pg and 15 Pg (2×) and 15.6 Pg (3×) and 14.9 Pg and 15.4 Pg and 16.2 Pg and the MCHC [8, 13] was 32.8 g/dL and 33.1 g/dL and 34.1 g/dL (2×) and 33.9 g/dL and 34.4 g/dL (2×) and 34 g/dL and 33.8 g/dL. For the same compound, the MCV [8, 13] was 45.2 fL (3×) and 45.4 fL and 45.8 fL and 44 fL and 43.6 fL and 45.7 fL and 48 fL, the MONO [8, 13] was 0.17 x 103/uL and 0.23 x 103/uL (2×) and 0.12 x 103/uL and 0.28 x 103/uL (2×) and 0.11 x 103/uL and 0.05 x 103/uL and 0.2 x 103/uL and the MPV [8, 13] was 5 fL (2×) and 5.5 fL and 5.9 fL and 5.1 fL and 5.4 fL (2×) and 5.6 fL and 4.8 fL. For the same compound, the NEU [8, 13] was 970 µL⁻¹ and 1680 µL⁻¹ and 1330 µL⁻¹ and 2070 µL⁻¹ and 1910 µL⁻¹ and 1210 µL⁻¹ and 630 µL⁻¹ and 1870 µL⁻¹ and 1770 µL⁻¹, the PLT [8, 13] was 1548 K/uL and 1435 K/uL and 1241 K/uL and 1545 K/uL and 1340 K/uL and 938 K/uL and 317 K/uL and 1303 K/uL and 1383 K/uL and the RBC [8, 13] was 9.27 M/uL and 8.74 M/uL and 6.26 M/uL and 10.46 M/uL and 9.24 M/uL and 6.5 M/uL and 2.36 M/uL and 9.37 M/uL and 8.63 M/uL. The RDW [8, 13] was 14.4% and 15.6% and 15.4% and 13.5% and 14.9% and 13.9% and 14.7% and 14.8% and 18.3%, the WBC [8, 13] was 5.5 k/uL and 8.3 k/uL and 5.92 k/uL and 8.1 k/uL and 8.87 k/uL and 5.55 k/uL and 2.01 k/uL and 8.91 k/uL and 8.33 k/uL and the “blood counts and other blood parameters versus vehicle” value ([8]; normal mice, 30 mg/kg, i.p., q.d., 14 days) was “no significant difference”. The activity at 50 µM [9] was 81.1%, the “% activity” value ([9]; 50 µM) was 68.7304% and the “effect on colony number or morphology” value [10] was “no effect on colony number or morphology”. The colony counts ([10]; 3 uM) was 70 and 68 and the colony counts ([10]; 6 uM) was 86 and 64.

In the case of `CN1CC(C(=O)NCc2ccc3c(-c4cccc(C(N)=O)c4)cn(C4CCN(S(=O)(=O)C(F)(F)F)CC4)c3c2)C1` [AS-nc], the “reduced inhibitory activity (thioamide of AS-99 replaced with amide)” value [11] is reported as ~ 100 fold, the IC50 ([11]; IC50, HMT assay with nucleosomes as substrate, mean ± s.d. from two independent experiments) is reported as 72 µM and the “% Ash1L activity” value ([11]; Log[compound] (M) -3) is reported as 8.534% and 3.267%. For the same compound, the “% Ash1L activity” value ([11]; Log[compound] (M) -3.47712) was 48.6163% and 37.7254%, the “% Ash1L activity” value ([11]; Log[compound] (M) -3.95424) was 56.4006% and 63.2923% and the “% Ash1L activity” value ([11]; Log[compound] (M) -4.43136) was 67.1309% and 48.4913%. The “% Ash1L activity” value ([11]; Log[compound] (M) -4.90849) was 72.7906% and 62.8102%, the “% Ash1L activity” value ([11]; Log[compound] (M) -5.38561) was 70.7731% and 79.0573% and the “% Ash1L activity” value ([11]; Log[compound] (M) -5.86273) was 90.948% and 119.086%.
